{
  "source": "paper PMC7270175",
  "about": "“Micelle-stabilized Olfactory Receptors for a Bioelectronic Nose Detecting Butter Flavors in Real Fermented Alcoholic Beverages” (Scientific Reports, 2020)",
  "molecular_target": "T1, ODR-10 (Caenorhabditis elegans, UniProt Q18807)",
  "T1 construct": "ODR-10 in pET-DEST42 (V5 and Ni-column purification tag), E. coli BL21(DE3), SDS-solubilized, reconstituted in DDM/Cymal 6 detergent micelles; also pcDNA3 ODR-10 in HEK-293 cells",
  "T1 sequence (Q18807 1-339)": "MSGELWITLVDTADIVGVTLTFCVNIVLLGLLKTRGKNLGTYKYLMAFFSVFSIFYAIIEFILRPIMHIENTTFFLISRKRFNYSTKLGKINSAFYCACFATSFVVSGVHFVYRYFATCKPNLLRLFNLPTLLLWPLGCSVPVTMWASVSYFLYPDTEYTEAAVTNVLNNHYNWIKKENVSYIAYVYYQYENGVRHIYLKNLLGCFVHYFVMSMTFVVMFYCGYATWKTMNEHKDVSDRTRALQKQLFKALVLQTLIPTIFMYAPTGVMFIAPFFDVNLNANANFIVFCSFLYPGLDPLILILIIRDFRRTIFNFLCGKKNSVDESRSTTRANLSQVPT",
  "experiment": "carbon nanotube FET, Hill fit of conductance response",
  "assay_type": "binding",
  "conditions": "read-out: K",
  "data": [
    {"smiles": "CC(=O)C(C)=O", "note": "[Diacetyl, 2,3-butanedione]", "values": [
      {"measurement": "Kd", "result": "~1.7", "unit": "pM"}
    ]}
  ]
}
